Test results: PMC8924359, “ZDQ-0620, a Novel Phosphatidylinositol 3-Kinase Inhibitor, Inhibits Colorectal Carcinoma Cell Proliferation and Suppresses Angiogenesis by Attenuating PI3K/AKT/mTOR Pathway” (Frontiers in Oncology, 2022)

Assays:
Assay type in all cases: biochemical
PI3Kδ = target: T1, PI3Kδ (Homo sapiens, UniProt O00329); assay: ADP-Glo lipid kinase assay
T1 construct: gene PIK3CD
T1 sequence (O00329 1-1044): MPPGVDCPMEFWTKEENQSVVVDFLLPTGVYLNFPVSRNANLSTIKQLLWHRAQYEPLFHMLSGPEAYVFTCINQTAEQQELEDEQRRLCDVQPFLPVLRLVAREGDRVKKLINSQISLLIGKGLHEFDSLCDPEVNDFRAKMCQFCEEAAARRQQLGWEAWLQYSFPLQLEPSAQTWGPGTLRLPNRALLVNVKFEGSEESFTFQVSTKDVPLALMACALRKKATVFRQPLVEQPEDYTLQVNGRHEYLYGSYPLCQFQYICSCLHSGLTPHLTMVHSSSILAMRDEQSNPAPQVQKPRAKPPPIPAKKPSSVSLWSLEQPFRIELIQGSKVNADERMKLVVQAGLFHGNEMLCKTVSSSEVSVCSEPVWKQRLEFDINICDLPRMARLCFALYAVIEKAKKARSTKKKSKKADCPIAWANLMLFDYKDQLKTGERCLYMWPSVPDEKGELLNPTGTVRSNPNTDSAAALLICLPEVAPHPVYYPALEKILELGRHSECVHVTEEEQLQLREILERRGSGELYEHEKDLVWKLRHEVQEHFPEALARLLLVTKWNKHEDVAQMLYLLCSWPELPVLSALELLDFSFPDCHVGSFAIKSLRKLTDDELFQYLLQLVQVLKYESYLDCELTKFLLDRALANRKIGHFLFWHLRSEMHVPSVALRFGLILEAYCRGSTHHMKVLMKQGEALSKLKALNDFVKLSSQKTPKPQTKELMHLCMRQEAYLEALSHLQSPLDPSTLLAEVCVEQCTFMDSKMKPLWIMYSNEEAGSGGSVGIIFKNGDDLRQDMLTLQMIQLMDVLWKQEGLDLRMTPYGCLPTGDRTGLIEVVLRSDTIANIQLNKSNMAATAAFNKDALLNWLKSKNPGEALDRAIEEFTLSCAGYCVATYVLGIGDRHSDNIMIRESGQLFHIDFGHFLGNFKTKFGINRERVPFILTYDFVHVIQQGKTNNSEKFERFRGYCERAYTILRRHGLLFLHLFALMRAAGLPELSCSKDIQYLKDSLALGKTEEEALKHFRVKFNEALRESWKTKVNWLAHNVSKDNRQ
From the text: ADP-Glo lipid kinase assay on PI3Kδ | IC50 of ZDQ-0620 against PI3K kinase in vitro.

PI3Kα = target: T2, PI3Kα (Homo sapiens, UniProt P42336); assay: ADP-Glo lipid kinase assay; supported by CETSA/ITDRF-CETSA in HCT116 cells
T2 construct: gene PIK3CA

PI3Kβ = target: T3, PI3Kβ (Homo sapiens, UniProt P42338); assay: ADP-Glo lipid kinase assay; supported by CETSA in HCT116 cells (weaker than PI3Kα)
T3 construct: gene PIK3CB
From the text: ADP-Glo lipid kinase assay; supported by CETSA in HCT116 cells (weaker than PI3Kα) on PI3Kβ | IC50 of ZDQ-0620 against PI3K kinase in vitro.

PI3Kγ = target: T4, PI3Kγ (Homo sapiens, UniProt P48736); assay: ADP-Glo lipid kinase assay
T4 construct: gene PIK3CG
From the text: ADP-Glo lipid kinase assay on PI3Kγ | IC50 of ZDQ-0620 against PI3K kinase in vitro.

T2 sequence (P42336 whole entry): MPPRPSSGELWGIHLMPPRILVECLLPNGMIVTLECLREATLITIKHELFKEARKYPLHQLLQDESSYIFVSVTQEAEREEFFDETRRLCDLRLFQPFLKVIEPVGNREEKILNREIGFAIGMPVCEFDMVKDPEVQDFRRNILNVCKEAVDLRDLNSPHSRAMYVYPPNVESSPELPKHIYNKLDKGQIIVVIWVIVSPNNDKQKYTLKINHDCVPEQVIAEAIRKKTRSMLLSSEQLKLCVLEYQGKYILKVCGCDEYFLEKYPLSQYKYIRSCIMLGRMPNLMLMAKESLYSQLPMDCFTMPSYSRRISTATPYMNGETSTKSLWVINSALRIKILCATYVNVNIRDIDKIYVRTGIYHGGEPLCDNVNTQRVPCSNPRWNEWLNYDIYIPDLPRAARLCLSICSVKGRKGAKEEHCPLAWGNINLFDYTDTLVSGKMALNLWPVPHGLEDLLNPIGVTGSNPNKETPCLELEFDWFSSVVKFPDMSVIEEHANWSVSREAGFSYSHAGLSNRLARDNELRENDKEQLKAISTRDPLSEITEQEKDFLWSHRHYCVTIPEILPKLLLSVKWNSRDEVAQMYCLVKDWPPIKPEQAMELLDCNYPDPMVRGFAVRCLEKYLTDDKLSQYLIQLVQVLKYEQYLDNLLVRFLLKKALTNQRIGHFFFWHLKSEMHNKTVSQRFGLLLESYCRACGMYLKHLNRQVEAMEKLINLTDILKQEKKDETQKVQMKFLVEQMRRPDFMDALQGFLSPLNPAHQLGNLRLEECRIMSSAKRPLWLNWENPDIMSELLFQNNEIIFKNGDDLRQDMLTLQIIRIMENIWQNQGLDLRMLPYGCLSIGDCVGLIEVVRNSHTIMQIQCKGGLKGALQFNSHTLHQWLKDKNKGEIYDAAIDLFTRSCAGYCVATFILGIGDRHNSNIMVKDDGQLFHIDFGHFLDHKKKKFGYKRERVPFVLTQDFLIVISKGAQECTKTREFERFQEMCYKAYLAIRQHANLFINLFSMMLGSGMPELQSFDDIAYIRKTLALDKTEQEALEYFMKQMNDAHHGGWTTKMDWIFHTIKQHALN
T3 sequence (P42338 whole entry): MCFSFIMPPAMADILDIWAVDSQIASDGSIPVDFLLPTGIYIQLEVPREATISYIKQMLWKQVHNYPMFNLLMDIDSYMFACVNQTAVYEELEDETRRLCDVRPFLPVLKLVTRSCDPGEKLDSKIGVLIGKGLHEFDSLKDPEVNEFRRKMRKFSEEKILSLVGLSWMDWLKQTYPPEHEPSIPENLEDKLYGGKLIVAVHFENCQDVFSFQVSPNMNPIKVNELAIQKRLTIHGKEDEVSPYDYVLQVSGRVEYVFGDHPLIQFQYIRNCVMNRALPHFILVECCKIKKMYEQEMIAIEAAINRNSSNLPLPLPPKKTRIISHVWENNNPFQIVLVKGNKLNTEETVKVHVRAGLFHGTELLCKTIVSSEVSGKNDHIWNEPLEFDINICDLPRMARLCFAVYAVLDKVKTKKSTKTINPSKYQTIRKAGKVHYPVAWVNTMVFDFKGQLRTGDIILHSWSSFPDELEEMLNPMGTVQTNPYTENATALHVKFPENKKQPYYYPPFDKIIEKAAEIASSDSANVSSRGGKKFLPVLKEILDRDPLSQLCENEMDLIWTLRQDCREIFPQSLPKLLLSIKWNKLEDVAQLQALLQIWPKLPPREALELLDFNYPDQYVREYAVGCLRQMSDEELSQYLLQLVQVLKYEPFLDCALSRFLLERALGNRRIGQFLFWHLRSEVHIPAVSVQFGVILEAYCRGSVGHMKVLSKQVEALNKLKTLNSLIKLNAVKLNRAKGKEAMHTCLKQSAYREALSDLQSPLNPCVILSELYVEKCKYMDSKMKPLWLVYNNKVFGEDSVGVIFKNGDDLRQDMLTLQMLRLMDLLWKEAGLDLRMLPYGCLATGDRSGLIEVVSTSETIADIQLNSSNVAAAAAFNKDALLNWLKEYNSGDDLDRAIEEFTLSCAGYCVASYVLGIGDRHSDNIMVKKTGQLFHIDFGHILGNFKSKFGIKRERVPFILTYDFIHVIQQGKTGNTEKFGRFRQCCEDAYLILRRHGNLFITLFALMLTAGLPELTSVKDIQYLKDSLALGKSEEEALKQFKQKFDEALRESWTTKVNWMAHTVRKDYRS
T4 sequence (P48736 whole entry): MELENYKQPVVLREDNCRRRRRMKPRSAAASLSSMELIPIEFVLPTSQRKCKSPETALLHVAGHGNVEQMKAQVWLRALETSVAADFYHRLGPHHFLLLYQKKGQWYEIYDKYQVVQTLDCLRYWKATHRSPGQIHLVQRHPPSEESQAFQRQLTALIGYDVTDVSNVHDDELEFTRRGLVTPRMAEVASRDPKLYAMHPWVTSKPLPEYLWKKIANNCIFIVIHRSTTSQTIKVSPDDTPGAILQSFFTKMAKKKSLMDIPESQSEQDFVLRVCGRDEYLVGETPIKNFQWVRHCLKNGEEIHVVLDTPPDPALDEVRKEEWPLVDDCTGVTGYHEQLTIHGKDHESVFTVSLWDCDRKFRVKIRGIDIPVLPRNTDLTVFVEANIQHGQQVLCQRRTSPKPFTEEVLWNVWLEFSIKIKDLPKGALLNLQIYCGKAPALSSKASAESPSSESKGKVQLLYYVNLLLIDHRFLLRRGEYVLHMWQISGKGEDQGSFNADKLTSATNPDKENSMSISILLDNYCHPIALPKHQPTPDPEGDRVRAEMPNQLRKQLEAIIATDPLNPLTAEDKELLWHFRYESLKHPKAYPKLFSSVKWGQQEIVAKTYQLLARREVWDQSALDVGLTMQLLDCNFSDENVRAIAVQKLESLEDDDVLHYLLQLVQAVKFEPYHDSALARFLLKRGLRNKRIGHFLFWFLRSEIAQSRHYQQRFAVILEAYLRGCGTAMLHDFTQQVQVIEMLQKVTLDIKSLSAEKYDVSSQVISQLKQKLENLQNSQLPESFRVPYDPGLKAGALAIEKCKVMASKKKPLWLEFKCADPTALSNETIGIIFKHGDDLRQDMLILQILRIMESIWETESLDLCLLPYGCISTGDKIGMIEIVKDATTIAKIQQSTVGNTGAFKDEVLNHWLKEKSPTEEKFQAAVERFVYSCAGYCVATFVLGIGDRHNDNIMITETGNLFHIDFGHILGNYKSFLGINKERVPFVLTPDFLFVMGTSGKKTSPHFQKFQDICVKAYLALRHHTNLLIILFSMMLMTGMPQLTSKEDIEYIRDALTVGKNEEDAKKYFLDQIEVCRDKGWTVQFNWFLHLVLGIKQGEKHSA

- IC50 (PI3Kδ): 152 nM
- IC50 (PI3Kα): 0.5 nM
- IC50 (PI3Kβ): 93 nM
- IC50 (PI3Kγ): 55 nM
Structure (SMILES): COc1ncc(-c2ccc3c(c2)N(CCCN2CCOCC2)C(=O)CO3)cc1NS(=O)(=O)c1ccc(F)cc1F [ZDQ-0620, 2,4-difluoro-N-(2-methoxy-5-(4-(3-morpholinopropyl)-3-oxo-3,4-dihydro-2H-benzo[b][1,4]oxazin-6-yl)pyridin-3-yl)benzenesulfonamide]
